Tests used:
human mAChR M1 [1] = biological target: T1, human mAChR M1 (Homo sapiens, UniProt P11229); test: mAChR M1 cell-based functional assay (calcium mobilization), agonist activity upon compound addition; details: CHO-K1 cells expressing hM1; for EC50: compound alone, before acetylcholine addition; for Emax: relative to the maximum for acetylcholine
T1 construct: host or cells: CHO-K1 cells (ATCC), stably transfected using Lipofectamine2000
T1 sequence (P11229 1-460): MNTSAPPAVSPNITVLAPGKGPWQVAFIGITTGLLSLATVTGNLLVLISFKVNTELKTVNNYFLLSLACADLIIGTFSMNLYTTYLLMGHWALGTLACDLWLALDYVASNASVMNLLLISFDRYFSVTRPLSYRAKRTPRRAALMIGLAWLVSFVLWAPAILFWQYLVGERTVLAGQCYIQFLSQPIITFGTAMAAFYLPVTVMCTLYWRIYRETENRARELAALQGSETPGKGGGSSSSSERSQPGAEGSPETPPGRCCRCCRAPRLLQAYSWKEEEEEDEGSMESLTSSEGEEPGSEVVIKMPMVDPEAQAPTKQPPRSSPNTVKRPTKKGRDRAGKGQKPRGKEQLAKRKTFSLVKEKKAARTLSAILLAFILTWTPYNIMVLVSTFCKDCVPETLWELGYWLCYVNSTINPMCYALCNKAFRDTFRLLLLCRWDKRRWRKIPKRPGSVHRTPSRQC
Procedure, shortened: (§1)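 CHO-K1 cells stably expressing hM1, loaded with Fluo-4 AM; calcium flux read on FDSS 6000. Compound (11-point, 1:3 CRC) added at 4 s, EC20 acetylcholine at 144 s, EC80 at 230 s; agonism from response to compound alone, PAM from increase in EC20 response; Emax relative to acetylcholine maximum, four-parameter fit.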

human mAChR M1 [2] = biological target: T1, human mAChR M1; test: mAChR M1 cell-based functional assay (calcium mobilization), PAM activity: increase in the EC20 acetylcholine response; details: CHO-K1 cells expressing hM1; potentiation of EC20 acetylcholine response
Procedure, shortened: as §1

EC50 (human mAChR M1 [1]) [µM] | Emax (human mAChR M1 [1]) [%] | EC50 (human mAChR M1 [2]) [µM] | Emax (human mAChR M1 [2]) [%] | SMILES
> 10 | < 5 | > 10 | 68 | Cn1ccc(-c2ccc(Cn3cc(C(=O)N[C@H]4CCOC[C@@H]4O)c4occc4c3=O)c(F)c2)n1 [Compound D6, 5-(2-fluoro-4-(1-methyl-1H-pyrazol-3-yl)benzyl)-N-((3R,4S)-3-hydroxytetrahydro-2H-pyran-4-yl)-4-oxo-4,5-dihydrofuro[3,2-c]pyridine-7-carboxamide]
> 10 | < 5 | 6.05 | 82 | Cn1ccc(-c2ccc(Cn3cc(C(=O)N[C@H]4CCCC[C@@H]4O)c4occc4c3=O)c(F)c2)n1 [Compound D7, 5-(2-fluoro-4-(1-methyl-1H-pyrazol-3-yl)benzyl)-N-((1S,2S)-2-hydroxycyclohexyl)-4-oxo-4,5-dihydrofuro[3,2-c]pyridine-7-carboxamide]
> 10 | < 5 | 5.13 | 32 | Cn1ccc(-c2ccc(Cn3cc(C(=O)N[C@H]4CCC[C@@H]4O)c4occc4c3=O)c(F)c2)n1 [Compound D8, 5-(2-Fluoro-4-(1-methyl-1H-pyrazol-3-yl)benzyl)-N-((1S,2S)-2-hydroxycyclopentyl)-4-oxo-4,5-dihydrofuro[3,2-c]pyridine-7-carboxamide]
> 10 | < 5 | 3.09 | 80 | Cn1ccc(-c2ccc(Cn3cc(C(=O)N[C@H]4CCCCC[C@@H]4O)c4occc4c3=O)c(F)c2)n1 [Compound D9, 5-(2-fluoro-4-(1-methyl-1H-pyrazol-3-yl)benzyl)-N-((1S,2S)-2-hydroxycycloheptyl)-4-oxo-4,5-dihydrofuro[3,2-c]pyridine-7-carboxamide]
> 10 | < 5 | > 10 | 25 | Cn1ccc(-c2ccc(Cn3cc(C(=O)NC4CC5(COC5)C4)c4occc4c3=O)c(F)c2)n1 [Compound D10, 5-(2-fluoro-4-(1-methyl-1H-pyrazol-3-yl)benzyl)-4-oxo-N-(2-oxaspiro[3.3]heptan-6-yl)-4,5-dihydrofuro[3,2-c]pyridine-7-carboxamide]
> 10 | < 5 | > 10 | 24 | Cn1ccc(-c2ccc(Cn3cc(C(=O)NC4CCOC(C)(C)C4)c4occc4c3=O)c(F)c2)n1 (stereo not drawn) [Compound D11, N-(2,2-dimethyltetrahydro-2H-pyran-4-yl)-5-(2-fluoro-4-(1-methyl-1H-pyrazol-3-yl)benzyl)-4-oxo-4,5-dihydrofuro[3,2-c]pyridine-7-carboxamide]
> 10 | < 5 | 4.02 | 67 | Cn1cc(-c2ccc(Cn3cc(C(=O)N[C@H]4CCOC[C@@H]4O)c4occc4c3=O)c(F)c2)cn1 [Compound D12, 5-(2-fluoro-4-(1-methyl-1H-pyrazol-4-yl)benzyl)-N-((3R,4S)-3-hydroxytetrahydro-2H-pyran-4-yl)-4-oxo-4,5-dihydrofuro[3,2-c]pyridine-7-carboxamide]
> 10 | 11 | 2.12 | 81 | Cn1cc(-c2ccc(Cn3cc(C(=O)N[C@H]4CCCC[C@@H]4O)c4occc4c3=O)c(F)c2)cn1 [Compound D13, 5-(2-fluoro-4-(1-methyl-1H-pyrazol-4-yl)benzyl)-N-((1S,2S)-2-hydroxycyclohexyl)-4-oxo-4,5-dihydrofuro[3,2-c]pyridine-7-carboxamide]
> 10 | < 5 | > 10 | 51 | Cn1cc(-c2ccc(Cn3cc(C(=O)N[C@H]4CCC[C@@H]4O)c4occc4c3=O)c(F)c2)cn1 [Compound D14, 5-(2-fluoro-4-(1-methyl-1H-pyrazol-4-yl)benzyl)-N-((1S,2S)-2-hydroxycyclopentyl)-4-oxo-4,5-dihydrofuro[3,2-c]pyridine-7-carboxamide]
> 10 | 8 | 2.02 | 75 | Cn1cc(-c2ccc(Cn3cc(C(=O)N[C@H]4CCCCC[C@@H]4O)c4occc4c3=O)c(F)c2)cn1 [Compound D16, 5-(2-fluoro-4-(1-methyl-1H-pyrazol-4-yl)benzyl)-N-((1S,2S)-2-hydroxycycloheptyl)-4-oxo-4,5-dihydrofuro[3,2-c]pyridine-7-carboxamide]
> 10 | < 5 | > 10 | 40 | Cn1cc(-c2ccc(Cn3cc(C(=O)NC4CC5(COC5)C4)c4occc4c3=O)c(F)c2)cn1 [Compound D17, 5-(2-fluoro-4-(1-methyl-1H-pyrazol-4-yl)benzyl)-4-oxo-N-(2-oxaspiro[3.3]heptan-6-yl)-4,5-dihydrofuro[3,2-c]pyridine-7-carboxamide]
2.27 | 11 | 0.28 | 85 | Cn1cc2c(-c3cc(F)c(Cn4cc(C(=O)N[C@H]5CCOC[C@@H]5O)c5occc5c4=O)c(F)c3)cccc2n1 [Compound D18, 5-(2,6-Difluoro-4-(2-methyl-2H-indazol-4-yl)benzyl)-N-((3R,4S)-3-hydroxytetrahydro-2H-pyran-4-yl)-4-oxo-4,5-dihydrofuro[3,2-c]pyridine-7-carboxamide]
> 10 | 9 | 0.43 | 82 | Cn1cc2c(-c3cc(F)c(Cn4cc(C(=O)N[C@H]5CCCC[C@@H]5O)c5occc5c4=O)c(F)c3)cccc2n1 [Compound D19, 5-(2,6-difluoro-4-(2-methyl-2H-indazol-4-yl)benzyl)-N-((1S,2S)-2-hydroxycyclohexyl)-4-oxo-4,5-dihydrofuro[3,2-c]pyridine-7-carboxamide]
> 10 | < 5 | 0.81 | 77 | Cn1cc2c(-c3cc(F)c(Cn4cc(C(=O)N[C@H]5CCC[C@@H]5O)c5occc5c4=O)c(F)c3)cccc2n1 [Compound D20, 5-(2,6-difluoro-4-(2-methyl-2H-indazol-4-yl)benzyl)-N-((1S,2S)-2-hydroxycyclopentyl)-4-oxo-4,5-dihydrofuran[3,2-c]pyridine-7-carboxamide]
> 10 | 9 | 0.95 | 81 | Cn1cc2c(-c3cc(F)c(Cn4cc(C(=O)N[C@H]5CCCCC[C@@H]5O)c5occc5c4=O)c(F)c3)cccc2n1 [Compound D22, 5-(2,6-difluoro-4-(2-methyl-2H-indazol-4-yl)benzyl)-N-((1S,2S)-2-hydroxycycloheptyl)-4-oxo-4,5-dihydrofuro[3,2-c]pyridine-7-carboxamide]
> 10 | < 5 | 4.12 | 64 | Cn1cc2c(-c3cc(F)c(Cn4cc(C(=O)NC5CCOCC5)c5occc5c4=O)c(F)c3)cccc2n1 [Compound D23, 5-(2,6-difluoro-4-(2-methyl-2H-indazol-4-yl)benzyl)-4-oxo-N-(tetrahydro-2H-pyran-4-yl)-4,5-dihydrofuro[3,2-c]pyridine-7-carboxamide]
> 10 | < 5 | 2.48 | 70 | Cn1cc2c(-c3cc(F)c(Cn4cc(C(=O)NC5CC6(COC6)C5)c5occc5c4=O)c(F)c3)cccc2n1 [Compound D24, 5-(2,6-difluoro-4-(2-methyl-2H-indazol-4-yl)benzyl)-4-oxo-N-(2-oxaspiro[3.3]heptan-6-yl)-4,5-dihydrofuro[3,2-c]pyridine-7-carboxamide]
> 10 | < 5 | > 10 | 53 | Cn1cc2c(-c3cc(F)c(Cn4cc(C(=O)NCC5CCCO5)c5occc5c4=O)c(F)c3)cccc2n1 (stereo not drawn) [Compound D25, 5-(2,6-difluoro-4-(2-methyl-2H-indazol-4-yl)benzyl)-4-oxo-N-((tetrahydrofuran-2-yl)methyl)-4,5-dihydrofuro[3,2-c]pyridine-7-carboxamide]
> 10 | < 5 | > 10 | 34 | Cn1ccc(-c2ccc(Cn3cc(C(=O)N[C@H]4CCOC[C@@H]4O)c4sccc4c3=O)c(F)c2)n1 [Compound D26, 5-(2-fluoro-4-(1-methyl-1H-pyrazol-3-yl)benzyl)-N-((3R,4S)-3-hydroxytetrahydro-2H-pyran-4-yl)-4-oxo-4,5-dihydrothieno[3,2-c]pyridine-7-carboxamide]
> 10 | < 5 | > 10 | 37 | Cn1ccc(-c2ccc(Cn3cc(C(=O)N[C@H]4CCCC[C@@H]4O)c4sccc4c3=O)c(F)c2)n1 [Compound D27, 5-(2-fluoro-4-(1-methyl-1H-pyrazol-3-yl)benzyl)-N-((1S,2S)-2-hydroxycyclohexyl)-4-oxo-4,5-dihydrothieno[3,2-c]pyridine-7-carboxamide]
> 10 | < 5 | > 10 | 40 | Cn1ccc(-c2ccc(Cn3cc(C(=O)N[C@H]4CCCCC[C@@H]4O)c4sccc4c3=O)c(F)c2)n1 [Compound D28, 5-(2-fluoro-4-(1-methyl-1H-pyrazol-3-yl)benzyl)-N-((1S,2S)-2-hydroxycycloheptyl)-4-oxo-4,5-dihydrothieno[3,2-c]pyridine-7-carboxamide]

Source: patent publication US20220041606A1, “POSITIVE ALLOSTERIC MODULATORS OF THE MUSCARINIC ACETYLCHOLINE RECEPTOR M1” (Vanderbilt University, priority 2020, published 2022)
